The test has as its target CD73 (Homo sapiens (Human), UniProt P21589). The class given is biochemical. The conditions noted are these: 1 mM NaH2PO4 in enzyme buffer, CD73 0.3 nM, AMP 15 uM.
Chain of CD73 (P21589 27-574): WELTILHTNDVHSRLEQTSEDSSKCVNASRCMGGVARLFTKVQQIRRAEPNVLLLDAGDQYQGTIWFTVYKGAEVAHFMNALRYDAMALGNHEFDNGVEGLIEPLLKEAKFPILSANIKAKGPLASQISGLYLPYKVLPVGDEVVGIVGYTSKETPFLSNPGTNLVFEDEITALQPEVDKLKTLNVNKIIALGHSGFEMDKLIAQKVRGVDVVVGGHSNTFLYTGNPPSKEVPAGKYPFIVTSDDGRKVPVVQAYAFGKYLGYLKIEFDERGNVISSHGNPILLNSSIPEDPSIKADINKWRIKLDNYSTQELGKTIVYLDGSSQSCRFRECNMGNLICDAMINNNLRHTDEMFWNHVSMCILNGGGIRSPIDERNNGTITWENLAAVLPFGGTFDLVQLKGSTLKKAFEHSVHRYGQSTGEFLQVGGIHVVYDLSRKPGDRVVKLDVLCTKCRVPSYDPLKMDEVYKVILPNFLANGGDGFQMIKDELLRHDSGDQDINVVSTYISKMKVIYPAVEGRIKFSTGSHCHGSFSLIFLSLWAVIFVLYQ
The IC50 is the concentration needed to halve the response being measured. Low values mean greater potency, high ones weaker potency. Turning to `O=c1[nH]cc(-c2cc([C@H]3C[C@@H]3c3ccc4c(c3)OC(F)(F)O4)c3nccn3n2)c(=O)[nH]1` (racemic) [Example 360, 5-(8-((1S,2S)-2-(2,2-difluorobenzo[d][1,3]dioxol-5-yl)cyclopropyl)imidazo[1,2-b]pyridazin-6-yl)pyrimidine-2,4(1H,3H)-dione], the IC50 came to 0.92 nM.
`O=c1[nH]cc(-c2cc([C@H]3C[C@@H]3c3ccc(OCC(F)(F)F)cn3)c3nccn3n2)c(=O)[nH]1` (racemic) [Example 363, 5-(8-((1S,2S)-2-(5-(2,2,2-trifluoroethoxy)pyridin-2-yl)cyclopropyl)imidazo[1,2-b]pyridazin-6-yl)pyrimidine-2,4(1H,3H)-dione] gave an IC50 of 2 nM.
Regarding `O=c1[nH]cc(-c2cc([C@H]3C[C@@H]3c3ncc(C(F)(F)F)s3)c3nccn3n2)c(=O)[nH]1` (racemic) [Example 364, 5-(8-((1S,2S)-2-(5-(trifluoromethyl)thiazol-2-yl)cyclopropyl)imidazo[1,2-b]pyridazin-6-yl)pyrimidine-2,4(1H,3H)-dione], the 50% inhibitory concentration (IC50) was 7.17 nM.
As for `O=c1[nH]cc(-c2cc([C@H]3C[C@@H]3c3cnn(C(F)(F)F)c3)c3nccn3n2)c(=O)[nH]1` (racemic) [Example 366, 5-(8-((1S,2S)-2-(1-(trifluoromethyl)-1H-pyrazol-4-yl)cyclopropyl)imidazo[1,2-b]pyridazin-6-yl)pyrimidine-2,4(1H,3H)-dione], the figure is 6.6 nM; as for `O=c1[nH]cc(-c2cc([C@H]3C[C@@H]3c3cnn(C(F)F)c3)c3nccn3n2)c(=O)[nH]1` (racemic) [Example 368, 5-(8-((1S,2S)-2-(1-(difluoromethyl)-1H-pyrazol-4-yl)cyclopropyl)imidazo[1,2-b]pyridazin-6-yl)pyrimidine-2,4(1H,3H)-dione], 3.73 nM; as for `O=c1[nH]cc(-c2cc([C@H]3C[C@@H]3c3ccn(C(F)F)n3)c3nccn3n2)c(=O)[nH]1` (racemic) [Example 369, 5-(8-((1S,2S)-2-(1-(difluoromethyl)-1H-pyrazol-3-yl)cyclopropyl)imidazo[1,2-b]pyridazin-6-yl)pyrimidine-2,4(1H,3H)-dione], 21.5 nM.
Compound `O=c1[nH]cc(-c2cc([C@H]3C[C@@H]3c3cnn(C(F)F)c3)c3ncc(F)n3n2)c(=O)[nH]1` (racemic) [Example 370, 5-(8-((1S,2S)-2-(1-(difluoromethyl)-1H-pyrazol-4-yl)cyclopropyl)-3-fluoroimidazo[1,2-b]pyridazin-6-yl)pyrimidine-2,4(1H,3H)-dione] registered an IC50 of 4.02 nM.
In turn, `O=c1[nH]cc(-c2cc([C@H]3C[C@@H]3c3ccc(OC(F)(F)F)cn3)c3nccn3n2)c(=O)[nH]1` (racemic) [Example 372, 5-(8-((1S,2S)-2-(5-(trifluoromethoxy)pyridin-2-yl)cyclopropyl)imidazo[1,2-b]pyridazin-6-yl)pyrimidine-2,4(1H,3H)-dione] displayed an IC50 of 3.4 nM.
In turn, `O=c1[nH]cc(-c2cc([C@H]3C[C@@H]3c3ccc(OC(F)(F)F)cn3)c3ncc(F)n3n2)c(=O)[nH]1` (racemic) [Example 374, 5-(3-fluoro-8-((1S,2S)-2-(5-(trifluoromethoxy)pyridin-2-yl)cyclopropyl)imidazo[1,2-b]pyridazin-6-yl)pyrimidine-2,4(1H,3H)-dione] came in with an IC50 of 4.1 nM.
`O=c1[nH]cc(-c2cc([C@H]3C[C@@H]3c3ccc(OC(F)(F)F)nc3)c3nccn3n2)c(=O)[nH]1` (racemic) [Example 376, 5-(8-((1S,2S)-2-(6-(trifluoromethoxy)pyridin-3-yl)cyclopropyl)imidazo[1,2-b]pyridazin-6-yl)pyrimidine-2,4(1H,3H)-dione] gave an IC50 of 8.07 nM.
`O=c1[nH]cc(-c2cc([C@H]3C[C@@H]3c3ncc(C(F)(F)F)cn3)c3nccn3n2)c(=O)[nH]1` (racemic) [Example 377, 5-(8-((1S,2S)-2-(5-(trifluoromethyl)pyrimidin-2-yl)cyclopropyl)imidazo[1,2-b]pyridazin-6-yl)pyrimidine-2,4(1H,3H)-dione] had an IC50 of 7.66 nM.
As for `O=c1[nH]cc(-c2cc([C@H]3C[C@@H]3c3ncc(C(F)(F)F)cn3)c3ncc(F)n3n2)c(=O)[nH]1` (racemic) [Example 378, 5-(3-fluoro-8-((1S,2S)-2-(5-(trifluoromethyl)pyrimidin-2-yl)cyclopropyl)imidazo[1,2-b]pyridazin-6-yl)pyrimidine-2,4(1H,3H)-dione], the figure is 6.45 nM; as for `N#Cc1ccc([C@H]2C[C@@H]2c2cc(-c3c[nH]c(=O)[nH]c3=O)nn3ccnc23)c(F)c1` (racemic) [Example 407, 4-((1S,2S)-2-(6-(2,4-dioxo-1,2,3,4-tetrahydropyrimidin-5-yl)imidazo[1,2-b]pyridazin-8-yl)cyclopropyl)-3-fluorobenzonitrile], 1.9 nM.
On to `N#Cc1cccc([C@H]2C[C@@H]2c2cc(-c3c[nH]c(=O)[nH]c3=O)nn3ccnc23)c1F` (racemic) [Example 408, 3-((1S,2S)-2-(6-(2,4-dioxo-1,2,3,4-tetrahydropyrimidin-5-yl)imidazo[1,2-b]pyridazin-8-yl)cyclopropyl)-2-fluorobenzonitrile], for which the IC50 worked out at 2.35 nM.
`N#Cc1ccc([C@H]2C[C@@H]2c2cc(-c3c[nH]c(=O)[nH]c3=O)nn3ccnc23)cc1C(F)(F)F` (racemic) [Example 411, 4-((1S,2S)-2-(6-(2,4-dioxo-1,2,3,4-tetrahydropyrimidin-5-yl)imidazo[1,2-b]pyridazin-8-yl)cyclopropyl)-2-(trifluoromethyl)benzonitrile] returned a half-inhibitory concentration (IC50) of 6.11 nM.
Consider `N#Cc1cc([C@H]2C[C@@H]2c2cc(-c3c[nH]c(=O)[nH]c3=O)nn3ccnc23)ccc1C(F)(F)F` (racemic) [Example 412, 5-((1S,2S)-2-(6-(2,4-dioxo-1,2,3,4-tetrahydropyrimidin-5-yl)imidazo[1,2-b]pyridazin-8-yl)cyclopropyl)-2-(trifluoromethyl)benzonitrile], for which the half-maximal inhibitory concentration (IC50) was determined as 6 nM.
Compound `N#Cc1ccc([C@H]2C[C@@H]2c2cc(-c3c[nH]c(=O)[nH]c3=O)nn3ccnc23)cc1OC(F)(F)F` (racemic) [Example 413, 4-((1S,2S)-2-(6-(2,4-dioxo-1,2,3,4-tetrahydropyrimidin-5-yl)imidazo[1,2-b]pyridazin-8-yl)cyclopropyl)-2-(trifluoromethoxy)benzonitrile] returned a half-inhibitory concentration (IC50) of 3.01 nM.
`N#Cc1cc([C@H]2C[C@@H]2c2cc(-c3c[nH]c(=O)[nH]c3=O)nn3ccnc23)ccc1OC(F)(F)F` (racemic) [Example 414, 5-((1S,2S)-2-(6-(2,4-dioxo-1,2,3,4-tetrahydropyrimidin-5-yl)imidazo[1,2-b]pyridazin-8-yl)cyclopropyl)-2-(trifluoromethoxy)benzonitrile] displayed a half-maximal inhibitory concentration (IC50) of 2.84 nM.
Turning to `O=c1[nH]cc(-c2cc(N3CC(Oc4ccc(C(F)(F)F)cn4)C(F)(F)C3)c3ncnn3n2)c(=O)[nH]1` (racemic) [Example 432, 5-(8-(3,3-difluoro-4-((5-(trifluoromethyl)pyridin-2-yl)oxy)pyrrolidin-1-yl)-[1,2,4]triazolo[1,5-b]pyridazin-6-yl)pyrimidine-2,4(1H,3H)-dione], the midpoint of inhibition, the IC50, lay at 0.15 nM.
As for `O=c1[nH]cc(-c2cc(N3CCC(CC(F)(F)F)C3)c3nccn3n2)c(=O)[nH]1` (racemic) [Example 452, 5-(8-(3-(2,2,2-trifluoroethyl)pyrrolidin-1-yl)imidazo[1,2-b]pyridazin-6-yl)pyrimidine-2,4(1H,3H)-dione], the figure is 95.3 nM.
In turn, `O=c1[nH]cc(-c2cc(N3CCC(CC(F)F)C3)c3nccn3n2)c(=O)[nH]1` (racemic) [Example 453, 5-(8-(3-(2,2-difluoroethyl)pyrrolidin-1-yl)imidazo[1,2-b]pyridazin-6-yl)pyrimidine-2,4(1H,3H)-dione] had a concentration for half-maximal inhibition (IC50) of 76 nM.
`O=c1[nH]cc(-c2cc([C@H]3C[C@@H]3c3nc4ccccc4[nH]3)c3nccn3n2)c(=O)[nH]1` (racemic) [Example 461, 5-(8-((1S,2S)-2-(1H-benzo[d]imidazol-2-yl)cyclopropyl)imidazo[1,2-b]pyridazin-6-yl)pyrimidine-2,4(1H,3H)-dione] had a concentration for half-maximal inhibition (IC50) of 2.56 nM.
With `O=C(Nc1ccccc1)[C@H]1C[C@@H]1c1cc(-c2c[nH]c(=O)[nH]c2=O)nn2ccnc12` (racemic) [Example 462, (1S,2S)-2-(6-(2,4-dioxo-1,2,3,4-tetrahydropyrimidin-5-yl)imidazo[1,2-b]pyridazin-8-yl)-N-phenylcyclopropane-1-carboxamide], the IC50 was found to be 9.39 nM.
As for `CC(C)(O)[C@H]1C[C@@H]1c1cc(-c2c[nH]c(=O)[nH]c2=O)nn2ccnc12` (racemic) [Example 463, 5-(8-((1S,2S)-2-(2-hydroxypropan-2-yl)cyclopropyl)imidazo[1,2-b]pyridazin-6-yl)pyrimidine-2,4(1H,3H)-dione], 61.9 nM corresponded to half-maximal inhibition (IC50).
As for `O=c1[nH]cc(-c2cc([C@H]3C[C@@H]3c3ccc(F)c(F)c3F)c3nccn3n2)c(=O)[nH]1` (racemic) [Example 464, 5-(8-((1S,2S)-2-(2,3,4-trifluorophenyl)cyclopropyl)imidazo[1,2-b]pyridazin-6-yl)pyrimidine-2,4(1H,3H)-dione], the figure is 1.47 nM.
As for `N#Cc1ccc(F)c([C@H]2C[C@@H]2c2cc(-c3c[nH]c(=O)[nH]c3=O)nn3ccnc23)c1` (racemic) [Example 466, 3-((1S,2S)-2-(6-(2,4-dioxo-1,2,3,4-tetrahydropyrimidin-5-yl)imidazo[1,2-b]pyridazin-8-yl)cyclopropyl)-4-fluorobenzonitrile], the figure is 3.47 nM; as for `O=c1[nH]cc(-c2cc([C@H]3C[C@@H]3c3c(F)ccc(F)c3F)c3nccn3n2)c(=O)[nH]1` (racemic) [Example 468, 5-(8-((1S,2S)-2-(2,3,6-trifluorophenyl)cyclopropyl)imidazo[1,2-b]pyridazin-6-yl)pyrimidine-2,4(1H,3H)-dione], 1.67 nM.
`O=c1[nH]cc(-c2cc([C@H]3C[C@@H]3c3cc4c(cn3)cnn4CC(F)(F)F)c3ncc(Cl)n3n2)c(=O)[nH]1` (racemic) [Example 471, 5-(3-chloro-8-((1S,2S)-2-(1-(2,2,2-trifluoroethyl)-1H-pyrazolo[4,3-c]pyridin-6-yl)cyclopropyl)imidazo[1,2-b]pyridazin-6-yl)pyrimidine-2,4(1H,3H)-dione] registered a half-inhibitory concentration (IC50) of 0.7 nM.

The values are drawn from patent US20240043427A1 (Gilead Sciences, Inc., priority 2020, published 2024).
